Earlier results as cited in patent publication US20250345266A1, “READY-TO-INFUSE OXYTOCIN COMPOSITIONS” (AMNEAL PHARMACEUTICALS LLC, priority 2024, published 2025).

half-life: about 3 minutes
SMILES: CC[C@H](C)[C@@H]1NC(=O)[C@H](Cc2ccc(O)cc2)NC(=O)[C@@H](N)CSSC[C@@H](C(=O)N2CCC[C@H]2C(=O)N[C@@H](CC(C)C)C(=O)NCC(N)=O)NC(=O)[C@H](CC(N)=O)NC(=O)[C@H](CCC(N)=O)NC1=O [Oxytocin]
